Read-outs that look alike come from different tables or passages of the source.
Columns and labels:
[1] = cited from earlier work
[2] = tested on: antibodies in the rat sera binding to PS-5.4 HEL; conditions: sera of rats immunized with cocaine-rCTB conjugate
anti-cocaine antisera = experiment: Specificity competition ELISA: drugs inhibiting binding of antibodies to cocaine-HEL; conditions: pool of antisera of mice immunized with cocaine-CTB PS-5.53; varying concentrations
rats = experiment: Discrimination of cocaine from saline, 2-lever procedure; type: in vivo; conditions: Rattus norvegicus, ip; rats trained on 10 mg/kg cocaine i.p., cumulative dosing; read-out: ED50±95% C.I. for cocaine-appropriate responses
Excerpt: After cocaine injections are given, the animals are required to press one of the levers (drug-appropriate lever) 10 times (FR 10) to obtain a food pellet; upon saline injections, they are required to press the other lever (saline-appropriate lever) 10 times to obtain a food pellet. When animals have learned to discriminate cocaine from saline, at least 90% of the total responses are made on the appropriate lever for several consecutive days. In order to incorporate a cumulative dosing procedure during later substitution test sessions, training sessions are made up of multiple components, each lasting for 10 min or until 10 FRs are completed, whichever occurred first.
Following training, substitution test sessions with different doses of cocaine (0.3-17.8 mg/kg) are conducted twice weekly, with training sessions on intervening days. Drug substitution test sessions consisted of four 10 min components, each preceded by a 15 min time-out period. During substitution tests, completion of 10 responses on either lever produce a food pellet. Incremental doses of cocaine are injected at the beginning of each of the 4 time-out periods. Overlapping ranges of cumulative doses are studied on different test days, permitting a seven-point cumulative dose-response curve to be determined in a single week. […]

mice = conditions: for total levels of cocaine in the brains of control mice: mouse, in vivo
[3] = cited from earlier work; for peak plasma concentration: in vivo; for plasma half life: Henningfield (1995)
[4] = Cocaine LD50 and time-to-death in immunized and naive mice; conditions: BALB/c, mouse, in vivo
Procedure: In these experiments, cocaine-immunized and control carrier-immunized mice are injected i.v. with cocaine at doses around the previously defined LD50. Ten mice are used at each point, and the data is analyzed using a Cochran-Mantel-Haenzel Chi-squared test.
In addition, a failure time model is used to analyze the time-to-death induced by cocaine. The extent to which the anti-cocaine antibodies increase both (a) the dose of cocaine required for lethality and (b) the time-to-death are measures of efficacy in this model. These provide a rapid and rigorous test of the in vivo efficacy of the antibodies.
The efficacy of therapeutic vaccination against cocaine was assessed by determining the lethal dose of cocaine (LD50) in immunized and naive animals. […] Each of the mice was bled at day 34 and serum antibody titers and competition with cocaine were assessed. […] For the LD50 experiment, 4-6 mice were used per group and each group was carefully matched for antibody titer and apparent affinity for free cocaine.

[5] = tested on: antibodies in the sera binding to PS-55 HEL; experiment: Competition ELISA with free nicotine or cotinine; design: species or system mouse; conditions: sera of mice injected with PS-55 BSA
Procedure: To determine whether the induced antibodies are capable of recognizing the free nicotine molecule, a competition ELISA was performed. In this assay, free nicotine competes with PS-55 HEL coated to ELISA plates for the binding of antibodies in the sera. If the antibodies that have a high affinity for nicotine comprise most of the antibodies binding to the PS-55 HEL, then low concentrations of nicotine are capable of effectively inhibiting the antibody binding. For 3 out of 4 mice described above which were injected with PS-55 BSA, antibody binding to PS-55 HEL was inhibited by free nicotine (FIG. 25). Note that the presence of antibody specific for the conjugate alone would not be expected to interfere with the action of the anti-nicotine antibody.

[6] = in vivo; cited from earlier work
[7] = pre-incubation with 50-fold excess unlabeled nicotine
Procedure: Immune sera from the above experiment was incubated with [^3H]-nicotine and protein-G-conjugated Sepharose beads (Gammabind-G Sepharose, Pharmacia), which bind IgG in the sera samples. The antibody-bound [^3H]-nicotine was isolated by centrifugation of the beads and was detected by scintillation counting of the beads.

[8] = HPLC analysis of methyl ester hydrolysis of succinylated norcocaine; conditions: 25° C.
[9] = tested on: eukaryotic cells expressing ganglioside GM1; type: cell-based

C[C@]12N[C@H](Cc3ccccc31)c1ccccc12 [MK-801]
increase of cocaine LD50 ([1]; alone): 1.3 fold | increase of cocaine LD50 ([1]; combined with propanolol): 1.4 fold

CN1[C@H]2CC[C@@H]1[C@@H](C(=O)O)[C@@H](OC(=O)c1ccccc1)C2 [benzoylecgonine, 3β-(Benzoyloxy)-8-methyl-8-azabicyclo[3.2.1]octane-2β-carboxylic acid]
competition of rat sera [2]: none of the sera tested are able to be competed by benzoylecgonine | inhibition of binding of antibodies to cocaine-HEL (anti-cocaine antisera): at high concentrations

COC(=O)[C@H]1[C@@H](OC(=O)c2ccccc2)C[C@@H]2CC[C@H]1N2C [cocaine, 3β-(Benzoyloxy)-8-methyl-8-azabicyclo[3.2.1]octane-2β-carboxylic acid methyl ester]
ED50 (rats): 2.14 ± 0.2 mg/kg | time of peak cocaine levels (mice; after intranasal administration): 2 to 5 min | time of peak cocaine levels (mice; after intravenous injection): 0.25 min | total levels of cocaine in the brains of control mice (mice): 1538 ng/g | total levels of cocaine in the brains of control mice (mice; iv): 2260 ng/g | published peak plasma levels ([3]; in addicts, Ambre 1991, Cone 1995, Cone 1989): 0.3 to 1.5 µg/mL | peak plasma concentration [3]: 0.3 to 1 µg/mL | LD50 ([4]; ip): 20 mg/kg | LD50 ([4]; iv): 3 mg/kg

CN1C(=O)CCC1c1cccnc1 (stereo not shown) [cotinine, N-Methyl-2-(3-pyridyl)-5-pyrrolidone]
competition for antibodies in the sera [5]: cannot compete with antibodies in any of the sera except at very high concentrations | plasma half life [3]: 19 h

CNCCCN1c2ccccc2CCc2ccccc21 [desipramine]
cocaine abstinence rate following treatment [6]: ≤ 70%

CN1CCCC1c1cccnc1 (stereo not shown) [nicotine, 1-Methyl-2-(3-pyridyl)pyrrolidine]
inhibition of [^3H]-nicotine binding to antibodies [7]: completely inhibited the binding | plasma half life [3]: approximately two | peak plasma concentration [3]: 0.025 to 0.05 µg/mL

COC(=O)[C@H]1[C@@H](OC(=O)c2ccccc2)C[C@@H]2CC[C@H]1N2C(=O)CCC(=O)O [succinylated norcocaine, 3β-(Benzoyloxy)-8-succinoyl-8-azabicyclo[3.2.1]octane-2β-carboxylic acid methyl ester]
time for 5% degradation ([8]; pH 6): 1.30 years | time for 5% degradation ([8]; pH 8): 10.96 days

rCTB
binding to cells (flow cytometry) [9]: bound to eukaryotic cells expressing ganglioside GM1

From patent US20020032316A1, “Hapten-carrier conjugates for use in drug-abuse therapy and methods for preparation of same” (priority 1995, published 2002)
